The subject of data set [1] is A549 cell. Nature of the data set: Cytotoxicity assay (MTS/MTT), A549 cells. The settings on record: read-out: Half-Inhibitory Concentration of Cells Growth (EC50), A549 cell. The format is cell-based, human. On the procedure: A549: human lung cancer cell strains;
(§1) Cells were seeded into RPMI 1640 cell culture solution containing 10% fetal bovine serum (100 ku/L of penicillin and 100 ku/L of streptomycin were supplemented). The culture dish was placed in a cell incubator containing 5% CO2 at 37° C. The culture solution was changed once every 2-3 days. Cells were digested with 0.25% trypsin liquid, passaged and collected.
(§2) Cells during the logarithmic growth phase were formulated into a cell suspension having a desired concentration with RPMI 1640 cell culture solution containing 10% fetal bovine serum. The cell suspension was added onto 96 well cell culture plate at 3000-5000 per well (100 μl). After incubating for 24 hours, 100 μl of the test substances with different concentration was added per well. There were four parallel wells for each concentration in this plate. After incubating for 72 to 120 hours, the supernatant was discarded. To each well was added 100 μl of new formulated 0.5 mg/ml MTT serum-free culture solution. After incubating for 4 hours at 37° C., the supernatant was discarded. Formazane was dissolved with 200 μl DMSO. After slightly oscillating for 15 min, absorbance values (OD value) at the detective wavelength of 570 nm and the reference wavelength of 450 nm were determined with enzyme labeling instrument.
(§3) Data was represented by x±s. The inhibition rate=(OD value of the control group−OD value of the administration group)/OD value of the control group×100%. The maximum inhibition rate Imax and the half effective concentration (IC50) represent the anticancer effects. Figures were drawn with MicroCal Origin software. The inhibition curve of the test substance to the growth of tumor cells was fitted by Four Parameters Logistic Program of the software. The half effective concentration (IC50: μg/ml) for inhibiting the proliferation of tumor cells was calculated.
(§4) The exposure concentrations of the test substance were 0.001 μg/ml, 0.003 μg/ml, 0.009 μg/ml, 0.027 μg/ml, 0.082 μg/ml, 0.247 μg/ml, 0.741 μg/ml, 2.222 μg/ml, 6.667 μg/ml and 20 μg/ml. The exposure concentrations of doxorubicin (positive drug) were 1.25 μg/ml, 5 μg/ml, 20 μg/ml. In a 96-well plate, 3000-5000 cells were inoculated in each well and there were four parallel wells for each concentration. Table 1 lists the growth inhibition rate of the compounds against Lovo cells at concentration of 1 μM. Table 3 lists the inhibition rate of the compounds against the hyperplasia of MCF-7 human breast cancer cells at various concentrations.

In data set [2] the test system is HCT-8 cell. Nature of the data set: Cytotoxicity assay (MTS/MTT), HCT-8 cells. The data set is classed as cell-based, human. The settings on record: read-out: Half-Inhibitory Concentration of Cells Growth (EC50), HCT-8 cell. How it is done:
HCT-8: human colon cancer cell strains;
as §1, §2, §3, §4

Data set [3] deals with Lovo cells. Nature of the data set: Cytotoxicity assay (MTS/MTT), growth inhibition of Lovo cells. The format is cell-based, human. The settings on record: concentration of 1 μM. How it is done:
LOVO: human colon cancer cell strains;
as §1, §2, §3, §4

For data set [4], the system named is MCF-7 human breast cancer cells. Nature of the data set: Cytotoxicity assay (MTS/MTT), MCF-7 cells. The format is cell-based. The settings on record: for EC50: read-out: Half-Inhibitory Concentration of Cells Growth (EC50), MCF-7 cell. How it is done: MCF-7: human breast cancer cell strains;
as §1, §2, §3, §4

Data set [5] relates to HEPG-2. Nature of the data set: Cytotoxicity assay (MTS/MTT), HEPG-2 cells. The format is cell-based, human. The note with it: read-out: Half-Inhibitory Concentration of Cells Growth (EC50), HEPG-2. How it is done:
HEPG-2: human liver cancer cell strains;
as §1, §2, §3, §4

Data set [6] has as its system Kunming white mice. Nature of the data set: In vivo MTD test in mice. The note with it: for Abnormality on the body surface / Change of body weight / Mortality rate: tail vein injection. On the procedure:
Experiment purpose: preliminary investigation on in vivo toxicity of the compound in Example 1 in mice
Experiment animal: Kunming white mice 20±2 g, purchased from the animal housing in Institute of Radiation Medicine, Chinese Academy of Medical Sciences. Animal license No.: SCXK(JIN)2005-0001.
Preparation of drug solution: After the drug was vortexed to dissolve with 0.5% (V/V) of DMSO, 5% (V/V) of RH40 (ethoxylated hydrogenated castor oil) was added. After mixing with vortex, the volume was determined with normal saline.
(1) Single administration: Nine healthy Kunming male white mice, of which the body weights are 20±2 g, were divided into three groups: 2 mice belong to the control group; 6 mice belong to 20 mg/kg group; 1 mouse belongs to 30 mg/kg group. 20 mg/kg and 30 mg/kg of the compound in Example 1 were administrated once via tail vein injection to the mice in the administration group. The same volume of a solvent was administrated as control to the mice in the control group. After administration, conditions such as action, reflex, locomotor activity and the like of the mice were observed within one hour. Subsequently, the body weights of the mice were recorded every day. Having observed for 14 days after drug withdrawal, the mice were anatomized to observe whether their main organs have an obvious abnormality.
(2) Multiple administrations: Twelve healthy Kunming white mice including six male mice and six female mice, of which the body weights are 20±2 g, were divided into two groups: […]. 10 mg/kg of the test drug was administrated once every three days via tail vein injection to the mice in the administration group. The same volume of a solvent was administrated as the control to the mice in the control group. The mice in each group were administrated five times. After each administration, conditions such as action, reflex, locomotor activity and the like of the mice were observed within one hour. The body weights of mice were recorded every day. Having been fed normally for one week after drug withdrawal, the mice were anatomized to observe whether their main organs have an obvious abnormality.

For data set [7], the system named is Kunming white mice. The note with it: reference value given in the conclusion; cited from earlier work.
The conditions of data set [8]: folds of doxorubicin; cited from earlier work.
For data set [9], the system named is transplanted tumor. The note with it: transplanted tumor in mice; cited from earlier work.
Where [10] appears, read: MCF-7, compound concentration 0.001 μg/ml.
[11] abbreviates: MCF-7, compound concentration 0.003 μg/ml.
Setting [12] is: MCF-7, compound concentration 0.009 μg/ml.
Setting [13] is: MCF-7, compound concentration 0.027 μg/ml.
[14] abbreviates: MCF-7, compound concentration 0.082 μg/ml.
Setting [15] is: MCF-7, compound concentration 0.247 μg/ml.
[16] abbreviates: MCF-7, compound concentration 0.741 μg/ml.
The mark [17] stands for this setting: MCF-7, compound concentration 2.222 μg/ml.
[18] abbreviates: MCF-7, compound concentration 6.667 μg/ml.
Setting [19] is: MCF-7, compound concentration 20 μg/ml.
The mark [20] stands for this setting: multiple administrations, 10 mg/kg once every three days, five times.
[21] abbreviates: single administration, 20 mg/kg and 30 mg/kg.

Values after ≈ are worked out from the molar mass of the structure shown. Like-named read-outs stand apart in the source and are kept apart here.

Turning to `COc1cccc2c1C(=O)c1c(O)c3c(c(O)c1C2=O)CC(O)(C(=O)COC(=O)CCC(=O)O)CC3OC1CC(n2cccc2)C(O)C(C)O1` (stereo not shown) [Example 13, 3′-pyrrolyldoxorubicin-14-oxo-hydrogen succinate], the EC50 came out at 2360 nM in data set [1] (A549 cell), 1870 nM in data set [2] (HCT-8 cell), 930 nM in data set [4] (MCF-7 cell) and 150 nM in data set [5] (HEPG-2). Besides, in data set [3], the “Growth Inhibition Rate (%)” value worked out at 76.05%.

Take “3′-pyrrolyl-5-iminodaunomycin [Example 2]”: in data set [3], the “Growth Inhibition Rate (%)” value was determined as 74.0%.

Consider `COc1cccc2c1C(=O)c1c(O)c3c(c(O)c1C2=O)C[C@@](O)(C(=O)CO)C[C@@H]3O[C@H]1C[C@H](n2cccc2)[C@H](O)[C@H](C)O1` [Example 1, 3′-pyrrolyldoxorubicin], for which the EC50 came to 61 nM in [1] (A549 cell), 490 nM in [2] (HCT-8 cell), 210 nM in data set [4] (MCF-7 cell) and 810 nM in [5] (HEPG-2). For the same compound, the “Growth Inhibition Rate (%)” value in [3] (1 µM) is reported as 80.62%. Moreover, the “A570 nm-OD Values” was 1.629 ± 0.257 in [4] (setting [10]); 1.744 ± 0.176 in data set [4] (setting [11]); 1.443 ± 0.079 in data set [4] (setting [12]); 1.238 ± 0.072 in data set [4] (setting [13]); 0.883 ± 0.041 in data set [4] (setting [14]); 0.703 ± 0.058 in [4] (setting [15]). For the same compound, the “A570 nm-OD Values” in data set [4] (setting [16]) was 0.461 ± 0.026; in data set [4] (setting [17]), 0.302 ± 0.030; in [4] (setting [18]) it was 0.320 ± 0.030; in data set [4] (setting [19]), 0.289 ± 0.019. Further, the “Inhibition Rate (%)” value is on record as 4.27% in data set [4] (setting [10]); −2.49% in data set [4] (setting [11]); 15.17% in [4] (setting [12]); 27.22% in [4] (setting [13]); 48.09% in data set [4] (setting [14]); 58.68% in [4] (setting [15]). Besides, the “Inhibition Rate (%)” value is 72.89% in [4] (setting [16]), 82.26% in [4] (setting [17]), 81.18% in [4] (setting [18]) and 83.03% in data set [4] (setting [19]). Besides, in [4] (MCF-7 human breast cancer cells), the “Imax (maximum inhibition rate)” value is reported as “Imax = 83.03%”. The same compound came in with an IC50 in data set [4] (MCF-7 human breast cancer cells, fitted inhibition curve) of 0.06023 ± 0.01528 µg/mL (≈ 0.101 µM). The “Maximal tolerance dose (MTD) relative to doxorubicin” value in data set [6] (mice, compared with doxorubicin MTD 8-12 mg/kg) is given as “at least more than five folds higher than that of doxorubicin”. Besides, the “Abnormality on the body surface” value in data set [6] (setting [20]) and in [6] (setting [21]) was “no obvious abnormality on the body surface was observed” each time. Moreover, the “Change of body weight” value was “The body weight of each mouse increased slowly after administration” in data set [6] (setting [20]) and “The body weight of each mouse increased after administration” in data set [6] (setting [21]). In addition, the Mortality rate result in data set [6] (setting [20]) is “Death was not found”; in [6] (single administration, 20 mg/kg and 30 mg/kg, observed 14 days) it was “Death was not found”.

Take `COc1cccc2c1C(=O)c1c(O)c3c(c(O)c1C2=O)CC(O)(C(=O)COC(=O)C(C)N)CC3OC1CC(n2cccc2)C(O)C(C)O1.Cl` (stereo not shown) [Example 38, 3′-pyrrolyldoxorubicin-14-oxo-alaninate hydrochloride]: the EC50 in data set [1] (A549 cell) came to 230 nM; in data set [2] (HCT-8 cell) it was 590 nM; in data set [4] (MCF-7 cell), 870 nM; in data set [5] (HEPG-2), 1060 nM. Besides, the “Growth Inhibition Rate (%)” value in data set [3] was 78.44%.

On to `COc1cccc2c1C(=O)c1c(O)c3c(c(O)c1C2=O)C[C@@](O)(C(=O)CO)C[C@@H]3O[C@H]1C[C@H](n2cccc2)[C@H](O)[C@H](C)O1` [Example 5, 3′-pyrrolyldoxorubicin], for which, in [3], the “Growth Inhibition Rate (%)” value amounted to 67.25%.

With 3′-pyrrolyl-idarubicin [Example 3], in data set [3], the “Growth Inhibition Rate (%)” value came to 88.9%.

For the compound 3′-pyrrolyl-esorubicin [Example 4], in data set [3], the “Growth Inhibition Rate (%)” value turned out to be 40.71%.

As to `COc1cccc2c1C(=O)c1c(O)c3c(c(O)c1C2=O)C[C@@](O)(C(=O)CO)C[C@@H]3O[C@H]1C[C@H](N)[C@H](O)[C@H](C)O1` [Doxorubicin, doxorubicin, reference compound], the EC50 in data set [1] (Homo sapiens, A549) came out at 660 nM; in data set [2] (Homo sapiens, HCT-8) it was 900 nM; in data set [4] (Homo sapiens, MCF7) it was 1200 nM; in data set [5] (Homo sapiens, HepG2), 2000 nM. The inhibition at 1 µM in [3] (Homo sapiens, read-out: Growth Inhibition Rate (%)) stood at 50.4%. Moreover, in data set [7], the “Maximal tolerance dose (MTD)” value is 8 to 12 mg/kg.

With “3′-pyrrolyl-4′-(pyran-2-yl)doxorubicin [Example 6]”, the “Growth Inhibition Rate (%)” value in data set [3] amounted to 90.94%.

As to `COc1cccc2c1C(=O)c1c(O)c3c(c(O)c1C2=O)CC(O)(C(=O)CO)CC3OC1CC(N2C(=O)CCC2=O)C(O)C(C)O1` (stereo not shown) [Example 7, 3′-succinimidodoxorubicin], in [3], the “Growth Inhibition Rate (%)” value is 83.31%.

With `COc1cccc2c1C(=O)c1c(O)c3c(c(O)c1C2=O)C[C@@](O)(C(=O)CO)C[C@@H]3O[C@H]1C[C@H](N2C=CCC2)[C@H](O)[C@H](C)O1` [AN-201, 2-pyrrolinyl-doxorubicin], the “Activity in the cellular level relative to doxorubicin” value in [8] is reported as 300-1000 folds. In data set [9], the “Anticancer activity at the maximal tolerance dose” value was “the anticancer activity was not observed at the maximal tolerance dose”.

By IC50 is commonly meant the concentration at which inhibition is half-maximal. The low end stands for greater potency, the high end for weaker potency. One may read the inhibition as how much of the control response was suppressed.

The values are drawn from patent publication US9115165B2, “Tetracyclic anthraquinone antibiotic derivatives with high activity, process for preparing the same and use thereof” (Tianjin Hemay Bio-Tech Co., Ltd., priority 2008, dated 2015).
